Results on 2 molecules are retold here after ChEMBL document CHEMBL2074386, “Saquinavir, an HIV protease inhibitor, is transported by P-glycoprotein” (J Pharmacol Exp Ther, 1998).

Data set [1] concerns the target T1, ATP-dependent translocase ABCB1 (Homo sapiens, UniProt P08183). The data set is described as follows: TP_TRANSPORTER: transepithelial transport (basal to apical) in HCT-8 cells. The data set is classed as functional, cell-based.
The target in data set [2] is T1, ATP-dependent translocase ABCB1. The data set is described as follows: TP_TRANSPORTER: inhibition of Rhodamine 123 transepithelial transport (basal to apical) (R123: 13 uM, Saquinavir: 20uM) in HCT-8 cells. The data set is classed as functional, cell-based. As to conditions: hct-8, 20 µM.

T1 sequence (P08183 whole entry): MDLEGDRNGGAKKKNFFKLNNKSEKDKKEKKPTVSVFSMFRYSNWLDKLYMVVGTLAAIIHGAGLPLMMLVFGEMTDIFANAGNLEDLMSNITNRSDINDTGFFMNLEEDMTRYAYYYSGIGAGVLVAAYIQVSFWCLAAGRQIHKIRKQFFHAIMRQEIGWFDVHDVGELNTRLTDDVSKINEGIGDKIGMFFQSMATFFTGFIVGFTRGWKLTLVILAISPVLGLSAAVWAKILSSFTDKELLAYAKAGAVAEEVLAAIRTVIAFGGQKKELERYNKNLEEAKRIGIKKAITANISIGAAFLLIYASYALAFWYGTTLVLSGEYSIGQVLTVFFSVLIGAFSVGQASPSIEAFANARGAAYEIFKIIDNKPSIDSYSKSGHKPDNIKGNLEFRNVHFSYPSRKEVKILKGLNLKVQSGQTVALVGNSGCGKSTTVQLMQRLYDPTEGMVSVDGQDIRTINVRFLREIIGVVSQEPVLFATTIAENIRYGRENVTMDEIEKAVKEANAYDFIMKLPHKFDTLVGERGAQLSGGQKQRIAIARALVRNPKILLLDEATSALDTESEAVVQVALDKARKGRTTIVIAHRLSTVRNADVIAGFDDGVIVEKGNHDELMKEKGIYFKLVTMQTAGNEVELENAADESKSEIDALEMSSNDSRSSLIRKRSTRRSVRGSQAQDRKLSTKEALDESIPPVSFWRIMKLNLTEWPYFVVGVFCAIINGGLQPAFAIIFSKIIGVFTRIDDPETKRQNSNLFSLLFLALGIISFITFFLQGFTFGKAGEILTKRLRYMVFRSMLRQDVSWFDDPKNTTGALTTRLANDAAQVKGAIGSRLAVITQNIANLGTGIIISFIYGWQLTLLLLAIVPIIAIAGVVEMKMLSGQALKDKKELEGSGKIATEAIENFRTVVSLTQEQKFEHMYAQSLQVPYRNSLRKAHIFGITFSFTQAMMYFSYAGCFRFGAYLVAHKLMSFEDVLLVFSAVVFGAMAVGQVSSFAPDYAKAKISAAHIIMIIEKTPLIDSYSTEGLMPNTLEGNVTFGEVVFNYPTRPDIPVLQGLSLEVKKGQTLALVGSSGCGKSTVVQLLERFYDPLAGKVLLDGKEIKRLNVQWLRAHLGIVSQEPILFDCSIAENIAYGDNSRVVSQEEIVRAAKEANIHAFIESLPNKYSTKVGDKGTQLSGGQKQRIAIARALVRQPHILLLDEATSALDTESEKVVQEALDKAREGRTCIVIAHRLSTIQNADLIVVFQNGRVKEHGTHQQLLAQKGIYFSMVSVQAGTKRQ

Consider `CC(C)(C)NC(=O)[C@@H]1C[C@@H]2CCCC[C@@H]2CN1C[C@@H](O)[C@H](Cc1ccccc1)NC(=O)[C@H](CC(N)=O)NC(=O)c1ccc2ccccc2n1`, for which the figures for the Activity result in data set [1] and in data set [2] were “substrate [+]” and “inhibitor [(at a rough estimate) 45 % of control]”, respectively.
Consider `COC(=O)c1ccccc1-c1c2ccc(=N)cc-2oc2cc(N)ccc12.Cl` [RHODAMINE123], for which, in data set [1], the Activity result is “substrate [+]”.
